IC50 data for 62 molecules are collected here from US20250171459A1, “2-METHYL-4',5'-DIHYDROSPIRO[PIPERIDINE-4,7'-THIENO[2,3-C]PYRAN] DERIVATIVES AS INHIBITORS OF APOL1 AND METHODS OF USING SAME” (Vertex Pharmaceuticals Incorporated, priority 2022, published 2025).

SMILES strings stand for the structures. A value given as a limit tells only on which side of the number the result lay.

The assay deals with T1, APOL1 (Homo sapiens, UniProt O14791).
T1 sequence (O14791 1-398 S342G/I384M): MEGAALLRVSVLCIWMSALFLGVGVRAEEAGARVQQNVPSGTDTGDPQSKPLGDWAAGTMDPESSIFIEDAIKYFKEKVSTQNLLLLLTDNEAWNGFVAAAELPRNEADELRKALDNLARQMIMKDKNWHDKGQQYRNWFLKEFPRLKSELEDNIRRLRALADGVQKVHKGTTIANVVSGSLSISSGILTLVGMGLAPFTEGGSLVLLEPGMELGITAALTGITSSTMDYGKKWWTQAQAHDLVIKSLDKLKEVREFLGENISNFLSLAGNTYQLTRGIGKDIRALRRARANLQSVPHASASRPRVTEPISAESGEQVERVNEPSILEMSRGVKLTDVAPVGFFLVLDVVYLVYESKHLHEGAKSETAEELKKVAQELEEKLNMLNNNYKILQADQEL
As to the kind of experiment: MultiTox-Fluor Multiplex Cytotoxicity Assay in tet-inducible APOL1 T-REx-HEK293 cells (cell rescue, ratio of dead to live cells). Type of assay: cell-based. The settings on record: tet-inducible transgenic APOL1 T-REx-HEK293 cell lines, 50 ng/mL tet, 24 hours; read-out: IP50 (i.e., IC50 for cell proliferation). In short, it runs like this: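 T-REx-HEK293 cells with tet-inducible APOL1 were treated with compound (10 μM top, 10-point 3-fold dilution, duplicate) plus 50 ng/mL tetracycline for 24 h at 37° C, in DMEM with 2% tet-free FBS. MultiTox-Fluor protease signals gave a dead/live ratio, normalized to no tet (100% viability) and tet alone (0%).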

On to `CCc1cc2c(s1)CCOC21CCN(Cc2cn(CC(O)C(C)(C)O)nn2)C(C)C1` (centres unmarked) [Compound 125], for which the IC50 is less than 100 nM.

For `CCc1cc2c(s1)CCO[C@@]21CCN(Cc2cn(C[C@H]3C[C@@H](O)C3)nn2)[C@@H](C)C1` [Compound 126], the IC50 was less than 100 nM.

For the molecule `CCc1cc2c(s1)CCO[C@@]21CCN(Cc2cn(C3(CO)CC3)nn2)[C@@H](C)C1` [Compound 127], the IC50 was 500 to 1000 nM.

Turning to `CCc1cc2c(s1)CCO[C@@]21CCN(Cc2cn(C3CC(CO)N3)nn2)[C@@H](C)C1` (some centres unmarked) [Compound 128], the IC50 is 100 to 500 nM.

In the case of `CCc1cc2c(s1)CCO[C@@]21CCN(Cc2cn(CCOC)nn2)[C@@H](C)C1` [Compound 129], the IC50 lay in the range of 100 to 500 nM.

With `CCc1cc2c(s1)CCO[C@@]21CCN(Cc2cn(C(C)COC)nn2)[C@@H](C)C1` (some centres unmarked) [Compound 130], the IC50 lay in the range of 100 to 500 nM.

Turning to `CCc1cc2c(s1)CCO[C@@]21CCN(Cc2cn(CC3CCOC3)nn2)[C@@H](C)C1` (some centres unmarked) [Compound 131], the IC50 is 100 to 500 nM.

Consider `CCc1cc2c(s1)CCO[C@@]21CCN(Cc2cn([C@H]3C[C@@](C)(O)C3)nn2)[C@@H](C)C1` [Compound 132], for which the IC50 was 100 to 500 nM.

Turning to `CCc1cc2c(s1)CCOC21CCN(Cc2cn(CC(O)CC)nn2)C(C)C1` (centres unmarked) [Compound 133], the IC50 was less than 100 nM.

`CCc1cc2c(s1)CCO[C@@]21CCN(Cc2cn(CC(C)(CO)CO)nn2)[C@@H](C)C1` [Compound 134]: the IC50 is less than 100 nM.

`CCc1cc2c(s1)CCO[C@@]21CCN(Cc2cn(CC(C)(C)CO)nn2)[C@@H](C)C1` [Compound 135]: the IC50 lay in the range of 100 to 500 nM.

With `CCc1cc2c(s1)CCO[C@@]21CCN(Cc2cn(CC3COCCO3)nn2)[C@@H](C)C1` (some centres unmarked) [Compound 136], the IC50 is less than 100 nM.

With `CCc1cc2c(s1)CCOC21CCN(Cc2cn(CC(COC)OC)nn2)C(C)C1` (centres unmarked) [Compound 137], the IC50 was less than 100 nM.

Consider `CCc1cc2c(s1)CCOC21CCN(Cc2cn(CC(O)COC)nn2)C(C)C1` (centres unmarked) [Compound 138], for which the IC50 was less than 100 nM.

Turning to `CCc1cc2c(s1)CCO[C@@]21CCN(Cc2cn(CC(CO)OC)nn2)[C@@H](C)C1` (some centres unmarked) [Compound 139], the IC50 is less than 100 nM.

Turning to `CCc1cc2c(s1)CCO[C@@]21CCN(Cc2cn(C[C@@H](C)O)nn2)[C@@H](C)C1` [Compound 140], the IC50 was less than 100 nM.

Turning to `CCc1cc2c(s1)CCO[C@@]21CCN(Cc2cn(C[C@H](C)O)nn2)[C@@H](C)C1` [Compound 141], the IC50 is 100 to 500 nM.

`CCc1cc2c(s1)CCO[C@@]21CCN(Cc2cn(C[C@H]3C[C@H](O)C3)nn2)[C@@H](C)C1` [Compound 142]: the IC50 lay within 100 to 500 nM.

Consider `CCc1cc2c(s1)CCOC21CCN(Cc2cn(CC(O)CO)nn2)C(C)C1` (centres unmarked) [Compound 143], for which the IC50 was less than 100 nM.

With `CCc1cc2c(s1)CCO[C@@]21CCN(Cc2cn([C@H]3CC[C@@H]3O)nn2)[C@@H](C)C1` [Compound 144], the IC50 fell in the range of 100 to 500 nM.

Turning to `CCc1cc2c(s1)CCO[C@@]21CCN(Cc2cn([C@H]3C[C@@H](OC)C3)nn2)[C@@H](C)C1` [Compound 145], the IC50 was less than 100 nM.

`CCc1cc2c(s1)CCO[C@@]21CCN(Cc2cn(CC3(O)COC3)nn2)[C@@H](C)C1` [Compound 146]: the IC50 is less than 100 nM.

For `CCc1cc2c(s1)CCO[C@@]21CCN(Cc2cn(C3(CO)COC3)nn2)[C@@H](C)C1` [Compound 147], the IC50 was in the range of 500 to 1000 nM.

In the case of `CCc1cc2c(s1)CCOC21CCN(Cc2cn(C(C)CC(N)=O)nn2)C(C)C1` (centres unmarked) [Compound 148], the IC50 lay within 100 to 500 nM.

For `CCc1cc2c(s1)CCO[C@@]21CCN(Cc2cn(C(C)(C)C(N)=O)nn2)[C@@H](C)C1` [Compound 149], the IC50 was in the range of 500 to 1000 nM.

On to `CCc1cc2c(s1)CCO[C@@]21CCN(Cc2cn(CC3(CO)CC3)nn2)[C@@H](C)C1` [Compound 150], for which the IC50 lay in the range of 100 to 500 nM.

As to `CCc1cc2c(s1)CCO[C@@]21CCN(Cc2cn([C@H]3C[C@H](O)C3)nn2)[C@@H](C)C1` [Compound 151], the IC50 was less than 100 nM.

With `CCc1cc2c(s1)CCO[C@@]21CCN(Cc2cn(C3CC(O)C3)nn2)[C@@H](C)C1` (some centres unmarked) [Compound 152], the IC50 was 100 to 500 nM.

Turning to `CCc1cc2c(s1)CCO[C@@]21CCN(Cc2cn(CCCO)nn2)[C@@H](C)C1` [Compound 153], the IC50 was less than 100 nM.

For the molecule `CCc1cc2c(s1)CCO[C@@]21CCN(Cc2cn(CCO)nn2)[C@@H](C)C1` [Compound 154], the IC50 was less than 100 nM.

In the case of `CCc1cc2c(s1)CCO[C@@]21CCN(Cc2cn(CC3(S(C)(=O)=O)CCOCC3)nn2)[C@@H](C)C1` [Compound 155], the IC50 is less than 100 nM.

With `CCc1cc2c(s1)CCO[C@@]21CCN(Cc2cn(CC3(S(C)(=O)=O)CC3)nn2)[C@@H](C)C1` [Compound 156], the IC50 is less than 100 nM.

For `CCc1cc2c(s1)CCO[C@@]21CCN(Cc2cn(CC3(S(C)(=O)=O)CCCC3)nn2)[C@@H](C)C1` [Compound 157], the IC50 was less than 100 nM.

Turning to `CCc1cc2c(s1)CCO[C@@]21CCN(Cc2cn(CC3CCCCS3(=O)=O)nn2)[C@@H](C)C1` (some centres unmarked) [Compound 158], the IC50 is less than 100 nM.

Turning to `CCc1cc2c(s1)CCO[C@@]21CCN(Cc2cn(CCS(=O)(=O)C(C)(C)C)nn2)[C@@H](C)C1` [Compound 159], the IC50 lay within 100 to 500 nM.

Consider `CCc1cc2c(s1)CCO[C@@]21CCN(Cc2cn(CCS(=O)(=O)C(C)C)nn2)[C@@H](C)C1` [Compound 160], for which the IC50 was less than 100 nM.

Consider `CCc1cc2c(s1)CCO[C@@]21CCN(Cc2cn(CC3CCCS3(=O)=O)nn2)[C@@H](C)C1` (some centres unmarked) [Compound 161], for which the IC50 was less than 100 nM.

With `CCc1cc2c(s1)CCO[C@@]21CCN(Cc2cn(C3CN(S(C)(=O)=O)C3)nn2)[C@@H](C)C1` [Compound 162], the IC50 is less than 100 nM.

Take `CCc1cc2c(s1)CCO[C@@]21CCN(Cc2cn(C(C)c3nncn3CCOC)nn2)[C@@H](C)C1` (some centres unmarked) [Compound 163]: the IC50 lay in the range of 500 to 1000 nM.

For the molecule `CCc1cc2c(s1)CCO[C@@]21CCN(Cc2cn(C(C)(C)C(=O)N3CCOCC3)nn2)[C@@H](C)C1` [Compound 164], the IC50 fell in the range of 500 to 1000 nM.

For the molecule `CCc1cc2c(s1)CCO[C@@]21CCN(Cc2cn(Cc3nc(C)no3)nn2)[C@@H](C)C1` [Compound 165], the IC50 is less than 100 nM.

As to `CCc1cc2c(s1)CCO[C@@]21CCN(Cc2cn(C3C[C@@H](CO)NC3=O)nn2)[C@@H](C)C1` (some centres unmarked) [Compound 166], the IC50 lay in the range of 500 to 1000 nM.

On to `CCc1cc2c(s1)CCO[C@@]21CCN(Cc2cn(Cc3cnn(C)n3)nn2)[C@@H](C)C1` [Compound 167], for which the IC50 was less than 100 nM.

In the case of `CCc1cc2c(s1)CCO[C@@]21CCN(Cc2cn(C(C)(C)CS(C)(=O)=O)nn2)[C@@H](C)C1` [Compound 168], the IC50 is 500 to 1000 nM.

Turning to `CCc1cc2c(s1)CCO[C@@]21CCN(Cc2cn(CC(O)(CC)CCCO)nn2)[C@@H](C)C1` (some centres unmarked) [Compound 169], the IC50 was less than 100 nM.

`CCc1cc2c(s1)CCO[C@@]21CCN(Cc2cn(C3(CO)CCOC3)nn2)[C@@H](C)C1` (some centres unmarked) [Compound 170]: the IC50 is 500 to 1000 nM.

With `CCc1cc2c(s1)CCO[C@@]21CCN(Cc2cn(CC3CN(C(C)=O)CCO3)nn2)[C@@H](C)C1` (some centres unmarked) [Compound 171], the IC50 is 100 to 500 nM.

In the case of `CCc1cc2c(s1)CCO[C@@]21CCN(Cc2cn(C(CC)C(=O)N3CCOCC3)nn2)[C@@H](C)C1` (some centres unmarked) [Compound 172], the IC50 lay in the range of 100 to 500 nM.

In the case of `CCc1cc2c(s1)CCO[C@@]21CCN(Cc2cn(CCN3C(=O)CCC3=O)nn2)[C@@H](C)C1` [Compound 173], the IC50 fell in the range of 100 to 500 nM.

Turning to `CCc1cc2c(s1)CCO[C@@]21CCN(Cc2cn(CC3CN(C)C(=O)CO3)nn2)[C@@H](C)C1` (some centres unmarked) [Compound 174], the IC50 is 100 to 500 nM.

Turning to `CCc1cc2c(s1)CCO[C@@]21CCN(Cc2cn(CCN3CCS(=O)(=O)CC3)nn2)[C@@H](C)C1` [Compound 175], the IC50 lay within 500 to 1000 nM.

With `CCc1cc2c(s1)CCO[C@@]21CCN(Cc2cn(Cc3nnc(C)o3)nn2)[C@@H](C)C1` [Compound 176], the IC50 is 100 to 500 nM.

For the molecule `CCc1cc2c(s1)CCO[C@@]21CCN(Cc2cn(C(C)(CO)CO)nn2)[C@@H](C)C1` [Compound 177], the IC50 lay within 500 to 1000 nM.

Turning to `CCc1cc2c(s1)CCO[C@@]21CCN(Cc2cn(CCOCCO)nn2)[C@@H](C)C1` [Compound 178], the IC50 lay in the range of 100 to 500 nM.

In the case of `CCc1cc2c(s1)CCO[C@@]21CCN(Cc2cn(Cc3cn(C)nn3)nn2)[C@@H](C)C1` [Compound 179], the IC50 is less than 100 nM.

As for `CCc1cc2c(s1)CCO[C@@]21CCN(Cc2cn(C3CC(=O)N(CCOC)C3)nn2)[C@@H](C)C1` (some centres unmarked) [Compound 180], the IC50 was less than 100 nM.

With `CCc1cc2c(s1)CCO[C@@]21CCN(Cc2cn(CC(N)=O)nn2)[C@@H](C)C1` [Compound 181], the IC50 was 100 to 500 nM.

`CCc1cc2c(s1)CCO[C@@]21CCN(Cc2cn(CCN(CCO)CCO)nn2)[C@@H](C)C1` [Compound 182]: the IC50 is 100 to 500 nM.

In the case of `CCc1cc2c(s1)CCO[C@@]21CCN(Cc2cn(CCCS(C)(=O)=O)nn2)[C@@H](C)C1` [Compound 183], the IC50 is less than 100 nM.

Turning to `CCc1cc2c(s1)CCO[C@@]21CCN(Cc2cn(Cc3nc(COC)no3)nn2)[C@@H](C)C1` [Compound 184], the IC50 is less than 100 nM.

Turning to `CCc1cc2c(s1)CCO[C@@]21CCN(Cc2cn(CCOc3nonc3C)nn2)[C@@H](C)C1` [Compound 185], the IC50 is less than 100 nM.

On to `CCc1cc2c(s1)CCO[C@@]21CCN(Cc2cn(C(C)c3nnc4n3CCC4)nn2)[C@@H](C)C1` (some centres unmarked) [Compound 186], for which the IC50 is 100 to 500 nM.
